According to patent publication US8329913B2, “Carbazole derivative, solvate thereof, or pharmaceutically acceptable salt thereof” (Zeria Pharmaceutical Co., Ltd., priority 2004, dated 2012):

These compounds were tested against T1, human PPARγ (Homo sapiens, UniProt P37231) (assay: Human PPARγ antagonist assay (luciferase reporter in transfected CV-1 cells)). Conditions: CV-1 cells expressing human PPARγ and RXRα with reporter plasmid; pioglitazone 1 μM as stimulant; 24 hours; read-out: Human PPARγ antagonist activities, Inhibition IC50.
T1 construct: 1.6 kb of fragment of the prepared plasmid pGEMT-hPPARg2 including human PPARγ gene; expressed in transfected cells; host or cells: CV-1 cells, transient transfection with pCI-hPPARg2, pCI-hRXRa and the reporter pGL3-PPRE3-TK
T1 sequence (P37231 1-505): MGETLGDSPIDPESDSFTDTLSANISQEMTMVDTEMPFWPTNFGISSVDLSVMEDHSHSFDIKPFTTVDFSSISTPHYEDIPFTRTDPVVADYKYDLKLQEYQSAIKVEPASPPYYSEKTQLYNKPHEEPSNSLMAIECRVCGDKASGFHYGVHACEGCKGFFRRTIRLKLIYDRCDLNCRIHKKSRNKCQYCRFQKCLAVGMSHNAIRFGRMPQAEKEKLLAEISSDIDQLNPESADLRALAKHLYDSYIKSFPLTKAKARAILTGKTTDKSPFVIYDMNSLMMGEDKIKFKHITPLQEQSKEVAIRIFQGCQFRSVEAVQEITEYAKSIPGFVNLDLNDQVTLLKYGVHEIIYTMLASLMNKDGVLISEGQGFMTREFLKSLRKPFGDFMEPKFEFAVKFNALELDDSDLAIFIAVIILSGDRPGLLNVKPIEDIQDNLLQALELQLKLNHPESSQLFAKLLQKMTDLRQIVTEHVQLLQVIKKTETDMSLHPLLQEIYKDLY
T1 sequence (P19793 1-462 partner): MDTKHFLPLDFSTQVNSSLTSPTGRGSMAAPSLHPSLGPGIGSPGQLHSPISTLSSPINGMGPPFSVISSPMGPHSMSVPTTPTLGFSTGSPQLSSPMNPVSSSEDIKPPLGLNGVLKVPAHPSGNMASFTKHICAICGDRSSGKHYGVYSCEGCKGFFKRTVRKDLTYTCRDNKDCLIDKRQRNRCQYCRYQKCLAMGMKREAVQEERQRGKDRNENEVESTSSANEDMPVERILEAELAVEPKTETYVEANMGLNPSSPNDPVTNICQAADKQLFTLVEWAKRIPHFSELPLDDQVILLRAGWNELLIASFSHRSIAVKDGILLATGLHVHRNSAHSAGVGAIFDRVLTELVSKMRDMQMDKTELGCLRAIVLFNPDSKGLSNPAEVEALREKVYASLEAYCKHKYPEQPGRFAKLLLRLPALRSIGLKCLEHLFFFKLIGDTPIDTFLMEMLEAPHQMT
Assay type: cell-based
Method: CV-1 cells (96 well plate), where human PPARγ and RXRα has expressed in the transient transfection of reporter plasmid (see reference 5a) were washed once with PBS (100 μL/well), and then supplemented with 100 μL/well […], as well as pioglitazone (not limited to pioglitazone shown as an example, but may be any PPARγ agonist) at a final concentration of 1 μM as a stimulant were added, and incubated in a 5% CO2 incubator at 37° C. for 24 hours. After removing the medium, the CV-1 cells were washed once with PBS (100 μL/well), and supplemented with 60 μL/well of 1× Passive Lysis Buffer (manufactured by Promega Corporation). The CV-1 cells were incubated at room temperature for 30 minutes, stirred, and then by using Dual-Luciferase Reporter Assay System (manufactured by Promega Corporation), luciferase activities of firefly and renilla were measured using 1420 ARVO Multilabel Counter (manufactured by Wallac Oy). Also, the same experiments as that described above were respectively carried out for the cases where only the above-mentioned stimulants (100 nM, 1 μM, 10 μM) were used, where only the above-mentioned test compounds were used, or where neither was used (nonsupplemented), and luciferase activities of firefly and renilla were measured. Values corrected by dividing the firefly luciferase activities by the renilla luciferase activities were calculated as specific activities and used for evaluations.
Human PPARγ2 antagonist activities of the test compounds were evaluated by using a percentage (inhibition) where the specific activity in case only […] was added is regarded as 0% and the specific activity in case the test compound and the stimulant were not added is regarded as 100%. Moreover, the concentration of the test compound indicating the inhibition rate of 50% was calculated as the IC50 value. Also, human PPARγ2 agonist activities of the test compounds were evaluated by using a percentage (activity) where the specific activity when nonsupplemented is regarded as 0% and the specific activity in case only 10 μM stimulant was added is regarded as 100%, from the specific activity in case only the test compound is used.
CV-1 cells were cultured in DMEM medium (manufactured by Invitrogen Corporation) including 10% fetal bovine serum (manufactured by Dainippon Pharmaceutical Co., Ltd.) in 225T-Flask (manufactured by Corning Costar). The cells were detached by 0.5 g/L trypsin-0.2 g/L EDTA (ethylene diamine tetra-acetic acid) (manufactured by Invitrogen Corporation), and then suspended in the DMEM medium including 10% fetal bovine serum to a cell concentration of 2×10^5 cells/mL. Thereafter, the cells were seeded into 96 well plate at 2×10^4 cells/0.1 mL/well, incubated in the 5% CO2 incubator at 37° C. overnight, and then the plasmids prepared by the above-mentioned reference 1a, reference 3a, and reference 4a were transfected into cells by using a lipofectamine reagent (manufactured by Invitrogen Corporation) according to the attached manual.
Namely, after CV-1 cells were cultured overnight, the cells were washed with PBS (100 μL/well). Thereafter the cells were incubated for 5 hours at 37° C./5% CO2 in the MEM medium (manufactured by Invitrogen Corporation) including 430 ng/mL of human PPARγ expression plasmid (pCI-hPPARg2) prepared by the reference 1a, 430 ng/mL of human RXRα expression plasmid (pCI-hRXRa) prepared by the reference 3a, and 140 ng/mL of the reporter plasmid (pGL3-PPRE3-TK) prepared by the reference 4a, 10 ng/mL of phRL-TK vector (manufactured by Promega Corporation) and 2 μL/mL of lipofectamine.
Work on `COc1cc(Cn2c3ccccc3c3c(OC(C)(C)C(=O)O)cccc32)ccc1OCc1nc(-c2ccco2)oc1C` [Example 7, 2-{9-[4-((2-(furan-2-yl)-5-methyl-oxazole-4-yl)methoxy)-3-methoxy-benzyl]-9H-carbazole-4-yloxy-}2-methyl-propionic acid] yielded an IC50 of 1910 nM. For `COc1cc(Cn2c3ccccc3c3c(OC(C)(C)C(=O)[O-])cccc32)ccc1OCc1nc(-c2cccs2)oc1C.[Na+]` [Example 32], the IC50 was 422 nM. `COc1cc(Cn2c3ccccc3c3c(OCC(C)(C)C(=O)O)cccc32)ccc1OCc1nc(-c2cccs2)oc1C` [Example 24, 3-{9-[3-methoxy-4-((5-methyl-2-(thiophene-2-yl)-oxazole-4-yl)methoxy)-benzyl]-9H-carbazole-4-yloxy}-2,2-dimethyl-propionic acid] was tested, and the IC50 was 71 nM. `COc1cc(Cn2c3ccccc3c3c(OCC(C)(C)C(=O)O)cccc32)ccc1OCc1nc(-c2ccco2)oc1C` [Example 23, 3-{9-[4-((2-(furan-2-yl)-5-methyl-oxazole-4-yl)methoxy)-3-methoxy-benzyl]-9H-carbazole-4-yloxy}-2,2-dimethyl-propionic acid] showed an IC50 of 93 nM. With `COc1cc(Cn2c3ccccc3c3c(OC(C)(C)C(=O)O)cccc32)ccc1OCc1nc(-c2ccccc2)oc1C` [Example 3, 2-{9-[3-methoxy-4-((5-methyl-2-phenyl-oxazole-4-yl)methoxy)-benzyl]-9H-carbazole-4-yloxy}-2-methyl-propionic acid] the IC50 was 420 nM. In the case of `Cc1oc(-c2ccccc2)nc1COc1ccc(Cn2c3ccccc3c3c(OC(C)(C)C(=O)O)cccc32)cc1` [Example 13, 2-methyl-2-{9-[4-((5-methyl-2-phenyl-oxazole-4-yl)methoxy)-benzyl]-9H-carbazole-4-yloxy}propionic acid], the IC50 is reported as 5870 nM. Work on `CCC(Oc1cccc2c1c1ccccc1n2Cc1ccc(OCc2nc(-c3ccccc3)oc2C)c(OC)c1)C(=O)O` (racemic) [Example 5, (±)-2-{9-[3-methoxy-4-((5-methyl-2-phenyl-oxazole-4-yl)methoxy)-benzyl]-9H-carbazole-4-yloxy}butyric acid] yielded an IC50 of 353 nM. With `CCC(Oc1cccc2c1c1ccccc1n2Cc1ccc(OCc2nc(-c3ccccc3)oc2C)c(OC)c1)C(=O)[O-].[Na+]` (stereo not drawn) [Example 31] the IC50 was 406 nM. `COc1cc(Cn2c3ccccc3c3c(OCC(C)(C)C(=O)[O-])cccc32)ccc1OCc1nc(-c2ccccc2)oc1C.[Na+]` [Example 34] gave an IC50 of 85 nM. Work on `COc1cc(Cn2c3ccccc3c3c(OCC(C)(C)C(=O)O)cccc32)ccc1OCc1nc(-c2ccccc2)oc1C` [Example 22, 3-{9-[3-methoxy-4-((5-methyl-2-phenyl-oxazole-4-yl)methoxy)-benzyl]-9H-carbazole-4-yloxy}-2,2-dimethyl-propionic acid] yielded an IC50 of 122 nM. Work on `COc1cc(Cn2c3ccccc3c3c(OCCC(C)C(=O)O)cccc32)ccc1OCc1nc(-c2ccccc2)oc1C` (racemic) [Example 27, (±)-4-{9-[3-methoxy-4-((5-methyl-2-phenyl-oxazole-4-yl)methoxy)-benzyl]-9H-carbazole-4-yloxy}-2-methyl-butyric acid] yielded an IC50 of 688 nM. Compound `COc1cc(Cn2c3ccccc3c3c(OCC(C)(C)C(=O)O)cccc32)ccc1OCc1nc(-c2ccncc2)oc1C` [Example 25, 3-{9-[3-methoxy-4-((5-methyl-2-pyridine-4-yl-oxazole-4-yl)methoxy)-benzyl]-9H-carbazole-4-yloxy}-2,2-dimethyl-propionic acid] has an IC50 of 430 nM. `COc1cc(Cn2c3ccccc3c3c(O[C@H](C)C(=O)[O-])cccc32)ccc1OCc1nc(-c2ccccc2)oc1C.[Na+]` [Example 43, sodium (R)-2-{9-[3-methoxy-4-((5-methyl-2-phenyl-oxazole-4-yl)methoxy)-benzyl]-9H-carbazole-4-yloxy}propionate] showed an IC50 of 1120 nM. Work on `COc1cc(Cn2c3ccccc3c3c(OCCC(C)C(=O)[O-])cccc32)ccc1OCc1nc(-c2ccccc2)oc1C.[Na+]` (racemic) [Example 37] yielded an IC50 of 354 nM. `COc1cc(Cn2c3ccccc3c3c(OC(C)C(=O)O)cccc32)ccc1OCc1nc(-c2ccccc2)oc1C` (racemic) [Example 4, (±)-2-{9-[3-methoxy-4-((5-methyl-2-phenyl-oxazole-4-yl)methoxy)-benzyl]-9H-carbazole-4-yloxy}propionic acid] showed an IC50 of 939 nM. Compound `COc1cc(Cn2c3ccccc3c3c(OC(C)(C)C(=O)O)cccc32)ccc1OCc1nc(-c2ccccc2)sc1C` [Example 15, 2-{9-[3-methoxy-4-((5-methyl-2-phenyl-thiazole-4-yl)methoxy)-benzyl]-9H-carbazole-4-yloxy}-2-methyl-propionic acid] has an IC50 of 5980 nM. With `COc1cc(Cn2c3ccccc3c3c(OC(C)(C)C(=O)O)cccc32)ccc1OCc1nc(-c2cccs2)oc1C` [Example 8, 2-{9-[3-methoxy-4-((5-methyl-2-(thiophene-2-yl)-oxazole-4-yl)methoxy)-benzyl]-9H-carbazole-4-yloxy}-2-methyl-propionic acid] the IC50 was 545 nM. In the case of `CC[C@H](Oc1cccc2c1c1ccccc1n2Cc1ccc(OCc2nc(-c3ccccc3)oc2C)c(OC)c1)C(=O)[O-].[Na+]` [Example 38, sodium (S)-(+)-2-{9-[3-methoxy-4-((5-methyl-2-phenyl-oxazole-4-yl)methoxy)-benzyl]-9H-carbazole-4-yloxy}butyrate], the IC50 is reported as 330 nM. In the case of `COc1cc(Cn2c3ccccc3c3c(OC(C)C(=O)[O-])cccc32)ccc1OCc1nc(-c2ccccc2)oc1C.[Na+]` (racemic) [Example 30], the IC50 is reported as 983 nM. `COc1cc(Cn2c3ccccc3c3c(OC(C)(C)C(=O)O)cccc32)ccc1OCc1nc(-c2ccncc2)oc1C` [Example 9, 2-{9-[3-methoxy-4-((5-methyl-2-(pyridine-4-yl)-oxazole-4-yl)methoxy)-benzyl]-9H-carbazole-4-yloxy}-2-methyl-propionic acid] was tested, and the IC50 was 5140 nM.

Same assay, conditions: at 10 μM test compound; CV-1 cells expressing human PPARγ and RXRα; pioglitazone as stimulant; read-out: Human PPARγ antagonist activities, Inhibition % at 10 μM
`COc1cc(Cn2c3ccccc3c3c(OC(C)(C)C(=O)O)cccc32)ccc1OCc1sc(-c2ccccc2)nc1C` [Example 16, 2-{9-[3-methoxy-4-((4-methyl-2-phenyl-thiazole-5-yl)methoxy)-benzyl]-9H-carbazole-4-yloxy}-2-methyl-propionic acid] gave an inhibition at 10 µM of 38.2%.
